From patent publication US20170143712A1, “Methods of Treating Cancers, Immune and Autoimmune Diseases, and Inflammatory Diseases Based on BTK Occupancy and BTK Resynthesis Rate” (Acerta Pharma B.V., priority 2014, published 2017)

Columns and labels:
[1] = test system: systemic lupus erythematosus (SLE) in MRL/MpJFASlpr mice; test: MRL/MpJFASlpr mouse model of systemic lupus erythematosus; assay type: in vivo; settings: for Histopathology Glomerulus Diameter / Histopathology Summed Score / Kidney (paired) Weight (g) / Change in Body Weight (g) wk 1-12 / Histopathology Interstitial Inflammation: mean (SE); for absolute kidney weights, reduction vs Vehicle Disease Controls / absolute mesenteric lymph node weights, reduction vs Vehicle Disease Controls: term animals
Experimental: A study designed to determine the effects of candidate anti-inflammatory agent Formula (II) in oral (PO), daily (QD) administration in the treatment of systemic lupus erythematosus (SLE) in MRL/MpJFASlpr mice. Formula (II) was preformulated in vehicle (0.4% HPMC, 0.1% Tween 80, with simethicone for antifoaming). The female MRL/MpJFASlpr mice were dosed with vehicle or Formula (II) (1, 5, or 25 mg/kg) daily (QD) by the oral (PO) route dosing, or they were dosed QD by the intraperitoneal (IP) route with the reference compound cyclophosphamide (15 mg/kg). Prior to dosing, the candidate anti-inflammatory agent was reconstituted either by vortexing or stirring. […]
Female MRL/MpJFASlpr mice (n=50) that were 8-9 weeks old and weighed approximately 28-41 grams (mean 34 g) at enrollment (mouse age approx. 12 weeks) were obtained from The Jackson Laboratory, Bar Harbor, Me. (stock number 000485). These mice were housed 3-5/cage in shoe-box polycarbonate cages with wire tops, wood chip bedding, and suspended food and water bottles. No concurrent medications were given.
When they were 12 weeks old (study day 0), the female MRL/MpJFASlpr mice (n=10/group) were randomized by body weight into 5 groups as shown above. Treatment was initiated after randomization and continued for […] (mouse age 12 weeks to 23 weeks).
Starting on study week one, and then every week thereafter urine from each animal was tested for proteinuria using the Clinitech Multistick test strip (Bayer). The animals were also observed daily for significant clinical signs, moribundity and mortality. […] Efficacy evaluation was based on animal body weights, proteinuria analysis, lymphadenopathy scores, skin lesion scores, organ weights, anti-dsDNA titers, clinical chemistry parameters, and histopathologic evaluation of the kidneys.
Any animals showing signs of morbundity were terminated immediately. At necropsy (3 h post-dose, mouse age 23 weeks), all remaining animals were anesthetized with Isoflurane and bled via cardiac puncture for serum and plasma (Li Heparin). The animals were bled to exsanguinate then euthanized by cervical dislocation. Spleens, kidneys (paired), and lymph nodes were collected and weighed. Kidneys were collected into 10% neutral buffered formalin (NBF). Spleens were placed in RPMI 1% FBS media for splenocyte isolation. Serum samples for potential clinical chemistry analysis were stored frozen at −80° C. until shipment to Antech Diagnostics. Plasma samples were stored frozen at −80° C. for mouse antidsDNA IgG analysis by ELISA.
Blood samples were drawn via cardiac puncture from Isoflurane anesthetized animals into serum separator microtainer tubes for clinical chemistries. Samples were shipped to Antech Diagnostics for analysis.

ID8 ovarian cancer = test: ID8 syngeneic orthotropic ovarian cancer murine model; assay type: in vivo, mouse; settings: 15 mg/kg/BID orally vs vehicle
Excerpt: The ID8 syngeneic orthotropic ovarian cancer murine model was used to investigate the therapeutic efficacy of the BTK inhibitor of Formula (II) through treatment of the solid tumor microenvironment. Human ovarian cancer models, including the ID8 syngeneic orthotropic ovarian cancer model and other animal models, are described in Fong and Kakar, J. Ovarian Res. 2009, 2, 12; Greenaway, et al., Gynecol. Oncol. 2008, 108, 385-94; Urzua, et al., Tumour Biol. 2005, 26, 236-44; Janat-Amsbury, et al., Anticancer Res. 2006, 26, 3223-28; Janat-Amsbury, et al., Anticancer Res. 2006, 26, 2785-89. Animals were treated with vehicle or Formula (II), 15 mg/kg/BID given orally. The results of the study are shown in FIG. 35A, FIG. 35B, FIG. 36, FIG. 37, FIG. 38A, FIG. 38B, FIG. 39A, and FIG. 39B.

[2] = 1 mg/kg PO QD, term animals only
[3] = 5 mg/kg PO QD, term animals only
[4] = 25 mg/kg PO QD, term animals only

## CC#CC(=O)N1CCC[C@H]1c1nc(-c2ccc(C(=O)Nc3ccccn3)cc2)c2c(N)nccn12 [Formula (II), (S)-4-(8-amino-3-(1-(but-2-ynoyl)pyrrolidin-2-yl)imidazo[1,5-a]pyrazin-1-yl)-N-(pyridin-2-yl)benzamide]
[1]; 1 mg/kg PO QD
  Percent Survival: 100%
[1]; 1 mg/kg PO QD, All Animals
  Histopathology Glomerulus Diameter: *87.78 (3.82)
  Histopathology Summed Score: 7.70 (1.07)
  Kidney (paired) Weight (g): 0.576 (0.03) g
[1]; 1 mg/kg PO QD, Term Animals
  Change in Body Weight (g) wk 1-12: 8.10 (0.66) g
  Histopathology Glomerulus Diameter: 87.78 (3.82)
  Histopathology Summed Score: 7.70 (1.07)
  Kidney (paired) Weight (g): 0.576 (0.03) g
[1]; 1 mg/kg PO QD, all animals
  glomerulus diameter, reduction vs Vehicle Disease Controls: 43%
  percent of glomeruli with crescents, reduction: 97%
  serum clinical chemistries vs Vehicle Disease Controls: significantly increased albumin (ALB), glucose (GLU), and sodium/potassium ratio (Na/K) and significantly reduced blood urea nitrogen (BUN), BUN/creatinine, phosphorus (P), potassium (K), cholesterol (CHOL), and amylase (AMY)
[1]; [2]
  percent of glomeruli with crescents, reduction: 90%
  serum clinical chemistries vs Vehicle Disease Controls: significantly reduced BUN and BUN/creatinine
[1]; 5 mg/kg PO QD
  Percent Survival: 90%
  mice that died or were sacrificed moribund prior to study termination: 1 of 10
  absolute kidney weights, reduction vs Vehicle Disease Controls: 16%
  absolute mesenteric lymph node weights, reduction vs Vehicle Disease Controls: 52%
[1]; 5 mg/kg PO QD, All Animals
  Histopathology Glomerulus Diameter: *80.53 (5.64)
  Histopathology Interstitial Inflammation: 1.98 (0.29)
  Histopathology Summed Score: *5.60 (0.98)
  Kidney (paired) Weight (g): 0.544 (0.02) g
[1]; 5 mg/kg PO QD, Term Animals
  Change in Body Weight (g) wk 1-12: 7.01 (0.67) g
  Histopathology Glomerulus Diameter: *80.17 (6.29)
  Histopathology Interstitial Inflammation: 1.97 (0.33)
  Histopathology Summed Score: *5.50 (1.08)
  Kidney (paired) Weight (g): *0.531 (0.02) g
[1]; 5 mg/kg PO QD, all animals
  glomerulus diameter, reduction: 60%
  glomerulus score, reduction: 58%
  percent of glomeruli with crescents, reduction: 99%
  protein cast score, reduction: 92%
  serum clinical chemistries vs Vehicle Disease Controls: significantly increased ALB, GLU, calcium (CA), and Na/K and significantly reduced BUN, BUN/creatinine, K, CHOL, and AMY
  summed histopathology scores, reduction: 63%
  vasculitis, reduction: 52%
[1]; [3]
  glomerulus diameter, reduction: 46%
  percent of glomeruli with crescents, reduction: 98%
  protein cast score, reduction: 90%
  serum clinical chemistries vs Vehicle Disease Controls: significantly increased ALB, albumin/globulin ratio (A/G), GLU and Na/K and significantly reduced BUN, BUN/creatinine, and K
  summed histopathology scores, reduction: 54%
[1]; 25 mg/kg PO QD
  Percent Survival: 100%
  absolute kidney weights, reduction vs Vehicle Disease Controls: 19%
  absolute mesenteric lymph node weights, reduction vs Vehicle Disease Controls: 49%
[1]; 25 mg/kg PO QD, All Animals
  Histopathology Glomerulus Diameter: *74.78 (1.62)
  Histopathology Interstitial Inflammation: *1.53 (0.15)
  Histopathology Summed Score: *3.88 (0.34)
  Kidney (paired) Weight (g): 0.511 (0.01) g
[1]; 25 mg/kg PO QD, Term Animals
  Change in Body Weight (g) wk 1-12: 6.90 (0.56) g
  Histopathology Glomerulus Diameter: *74.78 (1.62)
  Histopathology Interstitial Inflammation: *1.53 (0.15)
  Histopathology Summed Score: *3.88 (0.34)
  Kidney (paired) Weight (g): *0.511 (0.01) g
[1]; 25 mg/kg PO QD, all animals
  glomerulus crescent score, reduction: 100%
  glomerulus diameter, reduction: 73%
  glomerulus score, reduction: 76%
  interstitial inflammation, reduction: 59%
  percent of glomeruli with crescents, reduction: 100%
  protein cast score, reduction: 98%
  serum clinical chemistries vs Vehicle Disease Controls: significantly increased ALB, GLU, calcium (CA), and Na/K and significantly reduced BUN, BUN/creatinine, K, CHOL, and AMY
  summed histopathology scores, reduction: 75%
  vasculitis, reduction: 52%
[1]; 25 mg/kg PO QD, all animals, mouse age 14-15 and 21-22
  urine protein scores vs Vehicle Disease Controls: significantly reduced
[1]; [4]
  glomerulus crescent score, reduction: 100%
  glomerulus diameters, reduction: 63%
  glomerulus score, reduction: 72%
  interstitial inflammation, reduction: 51%
  percent of glomeruli with crescents, reduction: 100%
  protein cast score, reduction: 97%
  serum clinical chemistries vs Vehicle Disease Controls: significantly increased ALB and CA and significantly reduced BUN and BUN/creatinine
  summed histopathology scores, reduction: 68%
  vasculitis, reduction: 47%
[1]; 25 mg/kg PO QD, term animals only, mouse age 22
  urine protein scores vs Vehicle Disease Controls: significantly reduced
[1]; 1, 5 or 25 mg/kg PO QD
  anti-dsDNA IgG levels vs Vehicle Disease Controls: not significantly affected
  body weight change vs Vehicle Disease Controls: did not differ significantly
  cumulative lymph node weights vs Vehicle Disease Controls: did not differ significantly
  lymphadenopathy scores vs Vehicle Disease Controls: not significantly affected
  skin lesion scores vs Vehicle Disease Controls: not significantly affected
  spleen weights vs Vehicle Disease Controls: did not differ significantly
ID8 ovarian cancer
  CD8+ T cells: increase
  ID8 ovarian cancer growth: impairs ID8 ovarian cancer growth
  immunosuppressive B cells in tumor-bearing mice: significant reduction
  immunosuppressive tumor associated Tregs: significant reduction
  immunosuppressive tumor-associated lymphocytes: significant reduction
